Test results reported in ChEMBL document CHEMBL4007440, “Development of the First Generation of Disulfide-Based Subtype-Selective and Potent Covalent Pyruvate Dehydrogenase Kinase 1 (PDK1) Inhibitors” (J Med Chem, 2017).
Each block holds one compound with its values, some of them ahead of it. Calls of active or inactive are those of the source. The rule behind the calls is not given here.

How the values were obtained:
[1] = biological target: T1, [Pyruvate dehydrogenase (acetyl-transferring)] kinase isozyme 1, mitochondrial (Homo sapiens, UniProt Q15118); test: Inhibition of PDK1 in human A549 cells assessed as reduction in phosphorylation of PDHE1 at S293 residue at 10 uM after 24 hrs by chemiluminescence/femtochemiluminescence method; assay type: cell-based
T1 sequence (Q15118 whole entry): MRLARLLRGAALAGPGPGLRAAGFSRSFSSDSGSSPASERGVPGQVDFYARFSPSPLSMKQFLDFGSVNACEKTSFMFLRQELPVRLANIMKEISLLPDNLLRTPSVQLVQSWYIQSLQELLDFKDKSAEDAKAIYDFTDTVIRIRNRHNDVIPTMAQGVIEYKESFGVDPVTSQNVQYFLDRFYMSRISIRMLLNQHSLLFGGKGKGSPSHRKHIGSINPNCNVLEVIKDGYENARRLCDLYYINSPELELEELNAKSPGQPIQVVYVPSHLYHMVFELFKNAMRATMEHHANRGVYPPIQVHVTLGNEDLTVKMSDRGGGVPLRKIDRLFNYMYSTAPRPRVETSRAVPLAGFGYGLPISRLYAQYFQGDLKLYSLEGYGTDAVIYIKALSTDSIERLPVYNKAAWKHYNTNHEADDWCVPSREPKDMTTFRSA

[2] = biological target: T1, [Pyruvate dehydrogenase (acetyl-transferring)] kinase isozyme 1, mitochondrial; test: Inhibition of full length His6-tagged PDK1 (unknown origin) expressed in Escherichia coli using full length His6-tagged PDHA1 as substrate after 30 mins by ELISA
A549 [3] = test: Antitumor activity against human A549 cells xenografted in BALB/c nude mouse assessed as tumor growth inhibition at 40 mg/kg, ip for 21 days measured on day 21 post dose relative to control; assay type: functional; details: 504 h, read-out: TGI
[4] = biological target: T1, [Pyruvate dehydrogenase (acetyl-transferring)] kinase isozyme 1, mitochondrial; test: Inhibition of PDK1 in human A549 cells assessed as reduction in phosphorylation of PDHE1 at S232 residue at 1 uM after 24 hrs by chemiluminescence/femtochemiluminescence method; assay type: cell-based
[5] = biological target: T1, [Pyruvate dehydrogenase (acetyl-transferring)] kinase isozyme 1, mitochondrial; test: Inhibition of PDK1 in human A549 cells assessed as reduction in phosphorylation of PDHE1 at S293 residue after 24 hrs by chemiluminescence/femtochemiluminescence method; assay type: cell-based
[6] = biological target: T1, [Pyruvate dehydrogenase (acetyl-transferring)] kinase isozyme 1, mitochondrial; test: Inhibition of PDK1 in human A549 cells assessed as reduction in phosphorylation of PDHE1 at S232 residue after 24 hrs by chemiluminescence/femtochemiluminescence method; assay type: cell-based
A549 [7] = test: Antitumor activity against human A549 cells xenografted in BALB/c nude mouse assessed as reduction in tumor weight at 40 to 80 mg/kg, ip for 21 days measured on day 21 post dose; assay type: functional, organism-based
[8] = biological target: T1, [Pyruvate dehydrogenase (acetyl-transferring)] kinase isozyme 1, mitochondrial; test: Inhibition of full length His6-tagged PDK1 (unknown origin) expressed in Escherichia coli using full length His6-tagged PDHA1 as substrate in presence of GSH after 30 mins by ELISA
Mus musculus = test: Toxicity in BALB/c nude mouse assessed as body weight loss at 40 to 80 mg/kg, ip for 21 days; assay type: organism-based; details: in vivo, 504 h
[9] = biological target: T1, [Pyruvate dehydrogenase (acetyl-transferring)] kinase isozyme 1, mitochondrial; test: Inhibition of PDK1 in human A549 cells assessed as reduction in phosphorylation of PDHE1 at S293 residue at 1 uM after 24 hrs by chemiluminescence/femtochemiluminescence method; assay type: cell-based
[10] = Antiproliferative activity against human Kelly cells after 72 hrs by CCK8 assay
[11] = Antiproliferative activity against human GM00637 cells after 72 hrs by CCK8 assay; assay type: cell-based; details: GM00637, 72 h
[12] = biological target: [Pyruvate dehydrogenase (acetyl-transferring)] kinase isozyme 4, mitochondrial (Homo sapiens, UniProt Q16654); test: Inhibition of PDK4 (unknown origin) at 10 uM using full length His6-tagged PDHA1 as substrate after 30 mins by ELISA
Sequence of [Pyruvate dehydrogenase (acetyl-transferring)] kinase isozyme 4, mitochondrial (Q16654 whole entry, looked up): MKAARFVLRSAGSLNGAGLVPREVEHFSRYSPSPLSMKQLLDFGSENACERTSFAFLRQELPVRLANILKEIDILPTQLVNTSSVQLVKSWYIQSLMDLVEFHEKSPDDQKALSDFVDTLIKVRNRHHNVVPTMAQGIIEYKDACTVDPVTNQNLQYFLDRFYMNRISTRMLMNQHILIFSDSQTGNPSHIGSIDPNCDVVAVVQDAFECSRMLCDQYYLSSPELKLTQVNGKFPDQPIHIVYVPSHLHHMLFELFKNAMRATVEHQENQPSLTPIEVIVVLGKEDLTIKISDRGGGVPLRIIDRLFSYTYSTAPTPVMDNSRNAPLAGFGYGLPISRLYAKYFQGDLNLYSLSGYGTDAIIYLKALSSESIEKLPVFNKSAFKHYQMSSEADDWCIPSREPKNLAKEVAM

A549 [13] = test: Antitumor activity against human A549 cells xenografted in BALB/c nude mouse assessed as tumor growth inhibition at 80 mg/kg, ip for 21 days measured on day 21 post dose relative to control; assay type: functional; details: 504 h, read-out: TGI
[14] = biological target: [Pyruvate dehydrogenase (acetyl-transferring)] kinase isozyme 3, mitochondrial (Homo sapiens, UniProt Q15120); test: Inhibition of PDK3 (unknown origin) using full length His6-tagged PDHA1 as substrate after 30 mins by ELISA
Sequence of [Pyruvate dehydrogenase (acetyl-transferring)] kinase isozyme 3, mitochondrial (Q15120 whole entry): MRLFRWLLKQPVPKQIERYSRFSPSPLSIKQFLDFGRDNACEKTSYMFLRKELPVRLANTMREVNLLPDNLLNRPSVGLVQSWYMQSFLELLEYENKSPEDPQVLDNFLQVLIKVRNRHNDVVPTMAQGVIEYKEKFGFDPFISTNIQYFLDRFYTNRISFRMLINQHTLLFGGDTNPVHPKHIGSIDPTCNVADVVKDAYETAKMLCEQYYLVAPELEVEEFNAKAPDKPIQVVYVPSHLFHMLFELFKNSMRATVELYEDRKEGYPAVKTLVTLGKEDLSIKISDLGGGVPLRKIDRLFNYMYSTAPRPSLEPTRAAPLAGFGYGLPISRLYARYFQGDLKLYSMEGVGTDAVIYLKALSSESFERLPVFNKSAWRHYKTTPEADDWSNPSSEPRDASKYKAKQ

A549 [15] = test: cells; details: Homo sapiens, A549, 72 h
Description: Antiproliferative activity against human A549 cells after 72 hrs by CCK8 assay

[16] = biological target: T1, [Pyruvate dehydrogenase (acetyl-transferring)] kinase isozyme 1, mitochondrial; test: Inhibition of PDK1 in human A549 cells assessed as reduction in phosphorylation of PDHE1 at S232 residue at 10 uM after 24 hrs by chemiluminescence/femtochemiluminescence method; assay type: cell-based
[17] = biological target: T1, [Pyruvate dehydrogenase (acetyl-transferring)] kinase isozyme 1, mitochondrial; test: Inhibition of PDK1 in human A549 cells assessed as reduction in extracellular acidification rate after 24 hrs by fluorescent biosensor based assay; assay type: cell-based
L02 = test: Antiproliferative activity against human LO2 cells after 72 hrs by CCK8 assay; assay type: cell-based; details: L02, 72 h
[18] = biological target: T1, [Pyruvate dehydrogenase (acetyl-transferring)] kinase isozyme 1, mitochondrial; test: Inhibition of PDK1 in human A549 cells assessed as increase in reactive oxygen species after 24 hrs by dihydroethidium staining based FACS analysis; assay type: cell-based
[19] = biological target: [Pyruvate dehydrogenase (acetyl-transferring)] kinase isozyme 2, mitochondrial (Homo sapiens, UniProt Q15119); test: Inhibition of PDK2 (unknown origin) using full length His6-tagged PDHA1 as substrate after 30 mins by ELISA
[20] = biological target: T1, [Pyruvate dehydrogenase (acetyl-transferring)] kinase isozyme 1, mitochondrial; test: Ratio of Kinact to Ki for full length His6-tagged PDK1 (unknown origin) expressed in Escherichia coli
[21] = biological target: T1, [Pyruvate dehydrogenase (acetyl-transferring)] kinase isozyme 1, mitochondrial; test: Inhibition of full length His6-tagged PDK1 (unknown origin) expressed in Escherichia coli assessed as inactivation rate using full length His6-tagged PDHA1 as substrate up to 45 mins by ELISA
[22] = biological target: T1, [Pyruvate dehydrogenase (acetyl-transferring)] kinase isozyme 1, mitochondrial; test: Inhibition of full length His6-tagged PDK1 (unknown origin) expressed in Escherichia coli up to 10 uM using full length His6-tagged PDHA1 as substrate after 30 mins by ELISA

inhibition [1]: Active
IC50 [2]: 0.289 µM
SMILES: S=C(SSC(=S)N1CCO[C@H]2CCCC[C@@H]21)N1CCO[C@H]2CCCC[C@@H]21

IC50 [2]: 0.476 µM
SMILES: c1cnc2sc(SSc3nc4cccnc4s3)nc2c1

IC50 [2]: 0.609 µM
SMILES: S=C(SSC(=S)N1CCCOC(COc2ccccc2)C1)N1CCCOC(COc2ccccc2)C1 (stereo not drawn)

IC50 [2]: 0.139 µM
SMILES: C1Cc2nc(SSc3nc4c(s3)CCC4)sc2C1

inhibition [4]: Active
inhibition [5]: Dose-dependent effect
inhibition [6]: Dose-dependent effect
inhibition [1]: Active
inhibition [8]: inactive
inhibition [9]: Active
inhibition [12]: inactive
Ki [14]: 7.76 µM
IC50 (A549 [15]): 0.225 µM
inhibition [16]: Active
inhibition [17]: Dose-dependent effect
inhibition [18]: Dose-dependent effect
IC50 [2]: 0.026 µM
Ki [2]: 0.109 µM
Ki [19]: 1.28 µM
SMILES: S=C(SSC(=S)N1CCCOCC1)N1CCCOCC1
inhibition in vivo at 40 mg/kg (A549 [3]): 26.2%
Activity (A549 [7]): Active
Activity (Mus musculus): Non-Toxic
IC50 [10]: 0.057 µM
IC50 [11]: > 10 µM
inhibition in vivo at 80 mg/kg (A549 [13]): 47.8%
IC50 (L02): > 10 µM

Ratio [20]: 0.06 ×10³ /M/s
Kinact [21]: 2.1 ×10⁻⁴ /s
IC50 [2]: 1.05 µM
Ki [2]: 3.35 µM
SMILES: S=C(SSC(=S)N1CCOc2ccccc21)N1CCOc2ccccc21

Ratio [20]: 0.07 ×10³ /M/s
Kinact [21]: 4.74 ×10⁻⁴ /s
IC50 [2]: 0.395 µM
Ki [2]: 0.872 µM
SMILES: OC1CN(C(=S)SSC(=S)N2CC(O)C2)C1

inhibition [22]: inactive
SMILES: CCOC(=O)C1CCc2nc(S)sc2C1 (stereo not drawn)

IC50 [2]: > 10 µM
SMILES: Cc1ccc(OCC2CN(C(=S)SSC(=S)N3CCCOC(COc4ccc(C)cc4)C3)CCCO2)cc1 (stereo not drawn)

IC50 [2]: 1.7 µM
SMILES: CN(C)C(=O)OCC1CN(C(=S)SSC(=S)N2CCOC(COC(=O)N(C)C)C2)CCO1 (stereo not drawn)

inhibition [4]: Active
inhibition [1]: Active
inhibition [9]: Active
inhibition [16]: Active
IC50 [2]: 0.032 µM
SMILES: C[C@@H]1CN(C(=S)SSC(=S)N2C[C@@H](C)O[C@@H](C)C2)C[C@H](C)O1

inhibition [4]: Active
inhibition [1]: Active
inhibition [9]: Active
inhibition [16]: Active
IC50 [2]: 0.072 µM
SMILES: CCOC[C@@H]1COCCN1C(=S)SSC(=S)N1CCOC[C@H]1COCC

IC50 [2]: 0.622 µM
SMILES: CCOCC1CN(C(=S)SSC(=S)N2CCCOC(COCC)C2)CCCO1 (stereo not drawn)

Ratio [20]: 3.93 ×10³ /M/s
Kinact [21]: 69.9 ×10⁻⁴ /s
IC50 [2]: 0.039 µM
Ki [2]: 1.8 µM
SMILES: C1CCc2nc(SSc3nc4c(s3)CCCCC4)sc2CC1

IC50 [2]: 0.379 µM
SMILES: c1ccc2sc(SSc3nc4ccccc4s3)nc2c1 [BENZOTHIAZYL DISULFIDE]

inhibition [4]: inactive
inhibition [1]: Active
inhibition [9]: inactive
inhibition [16]: Active
IC50 [2]: 0.702 µM
SMILES: OCC1CN(C(=S)SSC(=S)N2CCOC(CO)C2)CCO1 (stereo not drawn)

IC50 [2]: 0.169 µM
SMILES: C1Cc2nc(SSc3nc4c(s3)COCC4)sc2CO1

IC50 [2]: 0.35 µM
SMILES: COCC1CN(C(=S)SSC(=S)N2CCCOC(COC)C2)CCCO1 (stereo not drawn)

IC50 [2]: 0.126 µM
SMILES: O=C(O)C1CN(C(=S)SSC(=S)N2CCOC(C(=O)O)C2)CCO1 (stereo not drawn)

inhibition [1]: Active
IC50 [2]: 0.247 µM
SMILES: S=C(SSC(=S)N1CCOC(COc2ccccc2)C1)N1CCOC(COc2ccccc2)C1 (stereo not drawn)

inhibition [5]: Dose-dependent effect
inhibition [6]: Dose-dependent effect
inhibition [8]: inactive
inhibition [12]: inactive
Ki [14]: 2.85 µM
IC50 (A549 [15]): 0.48 µM
inhibition [17]: Dose-dependent effect
inhibition [18]: Dose-dependent effect
IC50 [2]: 0.049 µM
Ki [2]: 0.462 µM
Ki [19]: 0.176 µM
SMILES: S=C(SSC(=S)N1CCOCC1)N1CCOCC1
inhibition in vivo at 40 mg/kg (A549 [3]): 27.7%
Activity (A549 [7]): Active
Activity (Mus musculus): Non-Toxic
IC50 [10]: 0.289 µM
IC50 [11]: > 10 µM
inhibition in vivo at 80 mg/kg (A549 [13]): 50.4%
IC50 (L02): > 10 µM

IC50 [2]: 0.588 µM
SMILES: CCCCOCC1CN(C(=S)SSC(=S)N2CCCOC(COCCCC)C2)CCCO1 (stereo not drawn)
